Measured values as given in patent publication US20180250309A1, “METHODS FOR TREATMENT OF MONOCYTE DYSFUNCTION AND CHRONIC INFLAMMATORY MICRO AND MACRO-VASCULAR DISEASES” (THE BOARD OF REGENTS OF THE UNIVERSITY OF TEXAS SYSTEM, priority 2015, published 2018).
Where two headings read alike, the source gives them in different places.

Key:
THP-1 monocytes = test: Monocyte chemotaxis of metabolically primed THP-1 monocytes towards MCP-1 (modified Boyden chamber); type: cell-based, Human; details: for monocyte chemotaxis: primed with glucose and LDL, 1 nM MCP-1, FIG. 2; for normal or baseline responses to chemokines: unprimed, non-pathogenic chemotaxis
Procedure: (§1) Chemotaxis assays are performed using 48-well, modified Boyden chambers (NeuroProbe, Gaithersburg, Md.) as described previously (1). Briefly, monocytes are primed with glucose and LDL in the presence of UA, 23-OHUA or vehicle (0.1% DMSO). Cells are loaded into upper wells of the chemotaxis chamber. Lower wells contain cell media with 1 nM MCP-1 (R&D Systems, Minneapolic, Minn.) or vehicle. A 5 μm polyvinyl pyrrolidone-free polycarbonate filter membrane is layered between the upper and lower chambers, and the chamber is incubated for 1.5 h for THP-1 monocytes at 37° C. and 5% CO2. The membrane is washed and cells removed from the upper side of the filter and fixed with methanol. Transmigrated are stained with 1 μM propidium iodide. Fluorescence intensity, which correlates with cell number is quantified with KODAK Image Station 4000MM (Carestream, Rochester, N.Y.).
Cell Culture/Priming. Human monocytic THP-1 cells (ATCC) were cultured in THP-1 medium (RPMI 1640, 5 mM glucose, 10% fetal bovine serum (FBS), 2% glutamax, 1% penicillin/streptomycin, 1% HEPES, 0.1% β-mercaptoethanol). Cells are spun down at 400 g, 5 minutes at 25° C. and resuspended in media at […]. Following 48 hours at 37° C. and 5% CO2, cells are plated in 12-well cell culture plates. Phytochemicals are solubilized in dimethylsulfoxide (DMSO) and are added to suspended THP-1 cells at concentrations from 0.03 μM to 3 μM. Control cells without phytonutrients are treated with 0.1% DMSO. Cytotoxicity was assessed with a trypan exclusion assay. To induce a metabolically stressed condition (priming), cells were treated with freshly isolated human LDL is added (100 μg/ml) along with D-glucose (20 mM) for 24 hours.
as §1, with “Chemotaxis. Chemotaxis” for “Chemotaxis”, “(Ullevig et al. Redox Biology. 2014 01/03;2:259-66).” for “(1).”, “islayered” for “is layered”

Nox4 = test: Induction of Nox4 in monocytes under metabolic stress; type: cell-based
Source text: The inventor has elucidated the mechanism through which hypercholesterolemia and hyperglycemia promote monocyte dysfunction. Monocyte dysfunction is induced by metabolic disorders via the pathological induction of Nox4.

[1] = Solubility / hydrophilicity relative to ursolic acid; type: physicochemical
diabetic atherosclerosis = test: Dietary supplementation in diabetic mice: monocyte dysfunction, macrophage recruitment, atherosclerosis; type: in vivo

Row | SMILES | monocyte priming by metabolic stress (hypersensitization to chemokine-induced activation) (THP-1 monocytes) | monocyte chemotaxis (THP-1 monocytes) | normal or baseline responses to chemokines (THP-1 monocytes) | induction of Nox4 (Nox4) | monocyte dysfunction (Nox4) | hydrophilicity relative to UA [1] | solubility compared with ursolic acid [1] | atherosclerosis (diabetic atherosclerosis) | monocyte dysfunction and macrophage recruitment (diabetic atherosclerosis) | atherosclerosis (diabetic atherosclerosis; listed as ursolic acid)
1 | CC1CCC2(C(=O)O)CCC3(C)C(=CCC4C5(C)CCC(O)C(C)(CO)C5CCC43C)C2C1C (stereo not drawn) [23-OH UA, 3β, 23-dihydroxyurs-12-en-28oic acid] | inhibit | reducing monocyte chemotaxis | do not block or affect normal or baseline responses to chemokines | prevents the induction of Nox4 | prevents | more hydrophilic | more soluble | – | – | –
2 | C[C@H]1[C@H](C)CC[C@]2(C(=O)O)CC[C@]3(C)C(=CC[C@@H]4[C@@]5(C)CC[C@H](O)C(C)(C)[C@@H]5CC[C@]43C)[C@H]12 [UA, Ursolic acid] | inhibit | reducing monocyte chemotaxis | do not block or affect normal or baseline responses to chemokines | prevent the induction of Nox4 | – | – | – | potent inhibitor of diabetic atherosclerosis | attenuates monocyte dysfunction and macrophage recruitment | protects diabetic mice from atherosclerosis
